What is called pest or weed control is the degree to which the test organism was suppressed or injured, in per cent.

Common to all, as to assay type: in vivo
Experiment [1] concerns Setaria faberi (SETFA). As to the kind of experiment: Example A pre-emergence herbicidal glasshouse test. The settings on record: 312 h, Rate 250 g/ha, evaluated after 13 days, 100=total damage to plant, 0=no damage to plant. The method, boiled down:
(§1)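 After sowing in standard soil, pots were cultivated 1 day (pre-emergence) or 8 days (post-emergence), then treated with an aqueous spray of the formulated active ingredient (acetone/water 50:50, 0.5% Tween 20). Phytotoxicity was assessed on a 0–100 scale at 13 days.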

Experiment [2] has as its system Alopecurus myosuroides (ALOMY). As to the kind of experiment: Example A pre-emergence herbicidal glasshouse test. The settings on record: 312 h, Rate 250 g/ha, evaluated after 13 days, 100=total damage to plant, 0=no damage to plant. The method, boiled down:
as §1

Experiment [3] relates to Amaranthus retroflexus (AMARE). As to the kind of experiment: Example A pre-emergence herbicidal glasshouse test. The conditions noted are these: 312 h, Rate 250 g/ha, evaluated after 13 days, 100=total damage to plant, 0=no damage to plant. Put shortly:
as §1

Experiment [4] has as its system Echinochloa crus-galli (ECHCG). As to the kind of experiment: Example A pre-emergence herbicidal glasshouse test. The settings on record: 312 h, Rate 250 g/ha, evaluated after 13 days, 100=total damage to plant, 0=no damage to plant. Put shortly: as §1
Experiment [5] has as its system Avena fatua (AVEFA). As to the kind of experiment: Example A pre-emergence herbicidal glasshouse test. The conditions noted are these: 312 h, Rate 250 g/ha, evaluated after 13 days, 100=total damage to plant, 0=no damage to plant. The method, boiled down: as §1
Experiment [6] relates to Setaria faberi (SETFA). The experiment in a line: Example B post-emergence herbicidal greenhouse test. The settings on record: 360 h, evaluated after 15 days, 100=total damage to plant, 0=no damage. The method, boiled down:
(§2)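 Spray of formulated compound 1 day after sowing (pre-emergence) or onto seedlings 10 days after sowing (post-emergence); greenhouse growth under optimum conditions; evaluation at 20 days (pre) or 15 days (post), 0-100 damage.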

Experiment [7] deals with Lolium perenne (LOLPE). The experiment is described as above. The settings on record: 360 h, evaluated after 15 days, 100=total damage to plant, 0=no damage. Put shortly:
as §2

Experiment [8] has as its system Alopecurus myosuroides (ALOMY). The description is as above. The settings on record: 360 h, evaluated after 15 days, 100=total damage to plant, 0=no damage. Put shortly: as §2
The test system of experiment [9] is Echinochloa crus-galli (ECHCG). Described as above. The settings on record: 360 h, evaluated after 15 days, 100=total damage to plant, 0=no damage. Put shortly:
as §2

The test system of experiment [10] is Digitaria sanguinalis (DIGSA). Described as above. The conditions noted are these: 360 h, evaluated after 15 days, 100=total damage to plant, 0=no damage. Put shortly:
as §2

For experiment [11], the system named is Avena fatua (AVEFA). The description is as above. The settings on record: 360 h, evaluated after 15 days, 100=total damage to plant, 0=no damage. The method, boiled down: as §2
For experiment [12], the system named is Setaria faberi (SETFA). The experiment in a line: Example A post-emergence herbicidal glasshouse test. The conditions noted are these: 312 h, evaluated after 13 days, 100=total damage to plant, 0=no damage. Put shortly:
as §1

Experiment [13] has as its system Alopecurus myosuroides (ALOMY). The experiment is described as above. The settings on record: 312 h, evaluated after 13 days, 100=total damage to plant, 0=no damage. Put shortly: as §1
For experiment [14], the system named is Amaranthus retroflexus (AMARE). The description is as above. The settings on record: 312 h, evaluated after 13 days, 100=total damage to plant, 0=no damage. The method, boiled down: as §1
In experiment [15] the test system is Echinochloa crus-galli (ECHCG). The description is as above. The conditions noted are these: 312 h, evaluated after 13 days, 100=total damage to plant, 0=no damage. Put shortly: as §1
Experiment [16] deals with Avena fatua (AVEFA). Described as above. The conditions noted are these: 312 h, evaluated after 13 days, 100=total damage to plant, 0=no damage. Put shortly: as §1
For experiment [17], the system named is Setaria faberi (SETFA). As to the kind of experiment: Example B pre-emergence herbicidal greenhouse test. The conditions noted are these: 480 h, evaluated after 20 days, 100=total damage to plant, 0=no damage. Put shortly:
as §2

In experiment [18] the test system is Lolium perenne (LOLPE). As to the kind of experiment: Example B pre-emergence herbicidal greenhouse test. The conditions noted are these: 480 h, evaluated after 20 days, 100=total damage to plant, 0=no damage. The method, boiled down:
as §2

Experiment [19] concerns Alopecurus myosuroides (ALOMY). The experiment in a line: Example B pre-emergence herbicidal greenhouse test. The settings on record: 480 h, evaluated after 20 days, 100=total damage to plant, 0=no damage. The method, boiled down:
as §2

Experiment [20] concerns Echinochloa crus-galli (ECHCG). As to the kind of experiment: Example B pre-emergence herbicidal greenhouse test. The conditions noted are these: 480 h, evaluated after 20 days, 100=total damage to plant, 0=no damage. The method, boiled down: as §2
In experiment [21] the test system is Digitaria sanguinalis (DIGSA). The experiment in a line: Example B pre-emergence herbicidal greenhouse test. The settings on record: 480 h, evaluated after 20 days, 100=total damage to plant, 0=no damage. The method, boiled down:
as §2

Experiment [22] relates to Avena fatua (AVEFA). As to the kind of experiment: Example B pre-emergence herbicidal greenhouse test. The settings on record: 480 h, evaluated after 20 days, 100=total damage to plant, 0=no damage. The method, boiled down:
as §2

As for `CCc1ccc(-c2ccc(Cl)cc2Cl)cc1C1=C(O)[C@H]2CC[C@H](C2)C1=O` [Compound T44, 3-(2′,4′-dichloro-4-ethylbiphen-3-yl)bicyclo[3.2.1]octane-2,4-dione], the pest or weed control at 250 g/ha was 100% in experiment [1]; 50% in experiment [2]; 0% in experiment [3]; 90% in experiment [4]; 20% in experiment [5]; 100% in experiment [12]. The pest or weed control at 250 g/ha was 90% in experiment [13]; 0% in experiment [14]; 100% in [15]; 90% in experiment [16]; 70% in experiment [17]; 10% in [18]. Also, the pest or weed control at 250 g/ha in experiment [19] stood at 0%; in [20], 50%; in [21] it was 80%; in [22] it was 10%. Moreover, the pest or weed control at 125 g/ha turned out to be 100% in [6]; 30% in experiment [7]; 60% in experiment [8]; 100% in [9]; 100% in [10]; 90% in experiment [11].

For the compound `CCc1ccc(-c2ccc(Cl)cc2)cc1C1=C(O)[C@H]2CC[C@H](CC2)C1=O` [Compound T54, 3-(4′-chloro-4-ethylbiphen-3-yl)bicyclo[3.2.2]nonane-2,4-dione], the pest or weed control at 250 g/ha in experiment [1] was found to be 100%; in [2] it was 90%; in experiment [3], 40%; in experiment [4], 100%; in experiment [5] it was 90%; in experiment [12], 100%. For the same compound, the pest or weed control at 250 g/ha in experiment [13] was 100%; in experiment [14], 0%; in [15], 100%; in experiment [16], 100%; in [17], 90%; in [18], 100%. In addition, the pest or weed control at 250 g/ha in experiment [19] amounted to 70%; in experiment [20], 100%; in experiment [21] it was 100%; in [22] it was 50%. The pest or weed control at 125 g/ha worked out at 100% in experiment [6]; 60% in experiment [7]; 90% in experiment [8]; 100% in [9]; 100% in experiment [10]; 70% in experiment [11].

With `CCc1cc(-c2ccc(Cl)cc2)ccc1C1=C(O)[C@H]2CC[C@H](C2)C1=O` [Compound T59, 3-(4′-chloro-3-ethylbiphen-4-yl)bicyclo[3.2.1]octane-2,4-dione], the pest or weed control at 250 g/ha in experiment [1] was 100%; in experiment [2], 70%; in [3], 0%; in [4], 100%; in experiment [5] it was 70%; in experiment [12], 100%. Moreover, the pest or weed control at 250 g/ha in experiment [13] is 100%; in experiment [14], 30%; in experiment [15] it was 100%; in experiment [16] it was 90%; in experiment [17], 100%; in experiment [18], 80%. Besides, the pest or weed control at 250 g/ha in experiment [19] was 80%; in [20], 100%; in experiment [21] it was 90%; in experiment [22], 70%. The pest or weed control at 125 g/ha stood at 100% in experiment [6]; 80% in experiment [7]; 90% in experiment [8]; 100% in experiment [9]; 100% in experiment [10]; 30% in experiment [11].

As for `Cc1cc(-c2ccc(Cl)cc2)ccc1C1=C(O)[C@H]2CC[C@H](C2)C1=O` [Compound T61, 3-(4′-chloro-3-methylbiphen-4-yl)bicyclo[3.2.1]octane-2,4-dione], the pest or weed control at 250 g/ha in experiment [1] came to 90%; in experiment [2], 40%; in experiment [3], 0%; in experiment [4], 80%; in experiment [5], 30%; in experiment [12], 100%. The pest or weed control at 250 g/ha stood at 100% in experiment [13]; 20% in [14]; 100% in [15]; 60% in experiment [16]; 100% in experiment [17]; 90% in experiment [18]. The pest or weed control at 250 g/ha in experiment [19] stood at 100%; in experiment [20], 90%; in experiment [21] it was 100%; in experiment [22], 40%. Further, the pest or weed control at 125 g/ha in [6] was 90%; in experiment [7] it was 30%; in [8] it was 60%; in [9], 80%; in [10], 100%; in experiment [11], 30%.

Consider `CCc1cc(-c2ccc(Cl)cc2)cc(CC)c1C1=C(O)[C@H]2CC[C@H](C2)C1=O` [Compound T62, 3-(4′-chloro-3,5-diethylbiphen-4-yl)bicyclo[3.2.1]octane-2,4-dione], for which the pest or weed control at 250 g/ha was determined as 100% in [1]; 80% in [2]; 20% in experiment [3]; 100% in [4]; 80% in [5]; 100% in experiment [12]. Also, the pest or weed control at 250 g/ha in experiment [13] was found to be 100%; in [14], 0%; in [15], 100%; in experiment [16] it was 90%; in [17] it was 100%; in [18], 100%. Further, the pest or weed control at 250 g/ha was determined as 100% in [19], 100% in experiment [20], 100% in [21] and 50% in experiment [22]. Besides, the pest or weed control at 125 g/ha in [6] was 100%; in experiment [7], 50%; in experiment [8], 60%; in [9], 100%; in [10], 100%; in experiment [11], 60%.

For the compound `CCc1cc(-c2ccc(C)cc2)cc(CC)c1C1=C(O)[C@H]2CC[C@H](C2)C1=O` [Compound T63], the pest or weed control at 250 g/ha came out at 100% in experiment [1]; 50% in experiment [2]; 0% in experiment [3]; 90% in [4]; 30% in experiment [5]; 100% in experiment [12]. In addition, the pest or weed control at 250 g/ha in experiment [13] worked out at 70%; in [14] it was 0%; in experiment [15], 100%; in experiment [16] it was 50%; in experiment [17], 70%; in experiment [18] it was 100%. The pest or weed control at 250 g/ha in [19] stood at 80%; in [20], 60%; in experiment [21] it was 90%; in experiment [22], 20%. Also, the pest or weed control at 125 g/ha in experiment [6] stood at 50%; in experiment [7], 10%; in experiment [8], 0%; in [9], 50%; in experiment [10] it was 60%; in experiment [11], 20%.

(Values after patent US8828908B2, “Herbicidally active bicyclic 1,3-dione compounds” (Syngenta Limited, priority 2007, dated 2014).)
